Test: Human HepG2 cell viability assay in 384 well format
Format: toxicity, cell-based
Design: dose 125 nL, time 70.5 hour; concentration not given beside the values
Conditions: HepG2 cells, read-out: Inhibition

SMILES	cytotoxicity at 70.5 h [%]
Cc1ccccc1CC(C)(C)NC(=O)c1cccc(OCC(N)=O)c1	-4.51
CCOCC(=O)N1CCC(Oc2ccc(Cl)cn2)CC1	-4.45
O=C(Cc1cccs1)NCC1Cn2nnc(-c3ccoc3)c2CO1 (centres undefined)	-5.7
O=C(NCCCN1CCOCC1)Nc1cnc2cc(Cl)ccc2c1O	9.66
CSc1ccc(CN(CCO)C(=O)CCc2ccc(O)cc2)cc1	-16.6
O=C(NCc1ccc(F)cc1)NCC1(N2CCOCC2)CCSC1 (centres undefined)	7.3
COc1ccc(CC(=O)N2CCC3(CC2)CCN(CC(C)C)C3=O)cc1	-10.5
CCOC(=O)c1cc2n(n1)CCCO2	22.1
CS(=O)(=O)N1CCN(C(=O)c2cccc(Cl)c2)CC2(CNC(=O)C2)C1 (centres undefined)	-0.473
COc1cc(C)nc(N2CCN(C(=O)CCc3cscn3)CC2)n1	-6.3
Cc1ccc(Cl)cc1N1CCN(CC(=O)NC(C)c2ccco2)CC1 (centres undefined)	1.33
CC(c1cccnc1)N(C)Cc1cc(O)c2cc(F)ccc2n1 (centres undefined)	-6.6
CC(C)c1cc(CN(C)C(=O)C(C)N2CCc3ccccc3C2)no1 (centres undefined)	34.4
CC(C)(C)n1cc(C#N)cc1NC(=O)CCS(=O)(=O)C1CCCC1	0.563
CCCn1ccnc1-c1nccn1CCN(C)C	-2.58
Cc1csc(C2NC3(CCCC3)C(=O)N2CC2CC2)n1 (centres undefined)	4.39
O=C(c1ccc(-c2cnco2)cc1)N1CCC(Nc2cccnn2)CC1	-4.21
O=C(NCCCF)Nc1ccc2nc(N3CCOCC3)oc2c1	12.5
CN1CCOC(CNCCOc2ccc(C#N)cc2)C1 (centres undefined)	-5.57
CN(C)C1CCN(C(=O)c2ccc(Cn3ccccc3=O)o2)CC1	1.64
CN(CCO)C[C@@H]1CN(C(=O)c2cccc(OC(F)F)c2)C[C@@H]1CO	-5.3
COc1ccnc(NC(Cc2ccccc2)C(=O)N(C)C)n1 (centres undefined)	5.68
CNC(=O)CC1CCN(Cc2nc(-c3ccc(SC)cc3)oc2C)CC1	-6.83

SMILES	cytotoxicity at 70.5 h [%]
CC(C)n1c(=O)nc2n1C(=O)N(c1ccccc1)C2	-5.73
C=C(C)COc1ccccc1NC(=O)N1CCOCC(CO)C1 (centres undefined)	23.5
CCc1noc(CN2CCCC(Cn3nc(C)nc3C)C2)n1 (centres undefined)	-12.1
O=C(NC1CC1)C1CCCN(c2cc(-n3cncn3)ncn2)C1 (centres undefined)	13.5
COCCNc1nnc(-c2ccccn2)s1	-4.27
COc1ccc2c(c1)OCC(CNC(=O)c1cnc(O)cn1)C2 (centres undefined)	-3.99
CC(C)n1cc(CN2CCCN(C(=O)COC3CCCC3)CC2)cn1	1.39
CCCc1c(C(=O)N2CCN(c3ncccn3)CC2)cnn1C	-10.6
COC(=O)C1CCN(C(=O)Cn2ccc(-c3ccsc3)n2)CC1	-3.32
Cc1nc(C2(NCc3ccc(C#N)cc3F)CCCC2)no1	-18.6
COc1ccc(CC(=O)N2CCCN(c3ccc(C#N)cc3)CC2)cc1	-2.17
O=C(CSCC1CC1)N1CCCN(c2ccc(F)cc2)CC1	-7.69
CS(=O)(=O)N1CCOC2(CCN(c3ncccn3)CC2)c2ccccc21	-1.05
O=C(c1ccco1)N1CCC2(CCC(=O)N2Cc2cccc(F)c2)CC1	-15.7
CN(C)c1cc(C2CCCN(C(=O)c3noc4c3CCCC4)C2)ccn1 (centres undefined)	-1.31
COc1c(CNC2CCc3cc(F)ccc32)c(C)nn1C (centres undefined)	-15.1
CC(C)C(=O)N1CCN(c2ncnc3cc4c(cc23)OCCO4)CC1	-1.97
CCN1CCCC1CNC(=O)c1cc(COc2cccc(F)c2)[nH]n1 (centres undefined)	0.339
COc1cccc(NC(=O)CNc2ccc(C(=O)N(C)C)c(Cl)c2)c1	-4.79
CCCC(C)CS(=O)(=O)NCc1cccnc1N(C)C (centres undefined)	-1.93
Cc1cc(C)nc(Nc2cccc(C3CCCN(CCO)C3)n2)n1 (centres undefined)	-4.13
CC(=O)Nc1ccc(C(=O)N(C)Cc2ccc(F)cc2F)s1	-61.6
CN(CCc1nc(-c2cccc(Cl)c2)no1)CCn1cccn1	-5.46

SMILES	cytotoxicity at 70.5 h [%]
O=C(NCc1nnc2ccccn12)N1CCOC(c2cccs2)C1 (centres undefined)	-8.39
CN1CC2(CCN(C(=O)c3ccc4c(=O)n(C)cnc4c3)C2)OC1=O (centres undefined)	8.11
COCCNC(=O)c1cc(OC)ccc1Br	0.394
CCS(=O)(=O)CCNC(=O)c1cc2n(n1)CCCO2	-5.74
CN(C)Cc1nc(C(C)(C)NC(=O)c2ccc3ccccc3c2)no1	-6.87
Cc1cccnc1CN1CC[C@@](C)(O)[C@H](Oc2ccccc2)C1	-7.26
O=C([C@@H]1CSCN1)N1CC2(CCNCC2)c2cc(Cl)ccc21	-3.25
CCCN1CCN(C(=O)c2cccc3cccnc23)[C@H]2CS(=O)(=O)C[C@H]21	25.6
Cc1ccc(NCc2ncc(C(C)(C)C)o2)c(Cl)c1	1.61
CCCc1nccn1-c1ccc(C(C)O)cc1 (centres undefined)	-5.9
Cn1cc(CNC(=O)C2CCCN(Cc3cccc(F)c3)C2)cn1 (centres undefined)	-11.1
COc1cc(N2C[C@@H]3COC[C@]3(COCc3cccc(C)n3)C2)ncn1	-0.577
O=C1CCCN1C(CNS(=O)(=O)C1CC1)Cc1cccc(F)c1 (centres undefined)	-15.5
Cc1cc(C)cc(C(=O)Nc2cccc(CN3CCCC3C(N)=O)c2)c1 (centres undefined)	6.78
Cc1nc(CN2CC[C@H](OCC3CC3)[C@@H]2Cc2cccnc2)cs1	-1.82
CN(C)S(=O)(=O)NCc1nc(-c2cccc(F)c2)c(-c2ccccn2)[nH]1	-0.435
CCS(=O)(=O)c1ccc(N2CCC(NC(=O)c3cnn(C)c3)CC2)cc1	-4.33
Cn1c(CN2CCCC(N3CCCCCC3)C2)cc(=O)n(C)c1=O (centres undefined)	-4.65
CN1N=C(C(=O)N2CCCC(CCc3ccccc3F)C2)CCC1=O (centres undefined)	-5.83
CC(C)C1CN(c2cnccn2)CCC(=O)N1Cc1ccc(F)cc1 (centres undefined)	-0.619
C[C@@H](O)CNc1c(NCc2ccco2)c(=O)c1=O	-12.9
Cc1noc(C)c1S(=O)(=O)NCC(O)c1ccc2c(c1)CCO2 (centres undefined)	17.6
CCNC(=O)N1CCc2ccc(NC(=O)NCc3ccsc3)cc21	9.35

SMILES	cytotoxicity at 70.5 h [%]
CCOc1ncccc1C(=O)N1CC=C(c2ccc(O)cc2)CC1	-6.39
Cc1nc(O)ccc1C(=O)NCc1ncoc1C	-2.74
CC(C)[C@H](NS(C)(=O)=O)C(=O)NCc1cc(-c2cccc(Cl)c2)nn1C	6.72
CC(Cn1cccn1)NC(=O)Nc1nncs1 (centres undefined)	-2.31
COCCC1(CNC(=O)NC2CCCN(C)C2)CC1 (centres undefined)	0.563
CC1(CNC(=O)NCc2ccsc2)CCCS1 (centres undefined)	-8.93
CCn1ncc(C(=O)NCCc2nc(-c3ccncc3)n[nH]2)c1C	-7.04
O=S(=O)(Cc1ccccc1Cl)NCCCN1CCCC1	-5.39
CC(O)CN1CCN(C(=O)c2cc3ccccc3n2C)CC1 (centres undefined)	14.8
CSc1[nH]nc(NC(=O)c2ccncc2)c1C#N	-1.59
O=C(O)c1cn(CC2CCCN(c3nccc4occc34)C2)nn1 (centres undefined)	-14.6
CN1CCCC2(CCN(Cc3cncn3C3CCCCC3)C2)C1=O (centres undefined)	-4.94
Cc1csc([C@@H]2C[C@@H]3CCN(C(=O)c4cc(C)on4)C[C@H]3O2)n1	-1.08
Cc1ccc(CN2CC[C@@H](N3CCOCC3)[C@@H]2Cc2cccnc2)o1	-6.64
Cc1nc(N)cc(C2CN(C(=O)c3cscn3)CCO2)n1 (centres undefined)	-10.9
CCS(=O)(=O)Cc1nnnn1-c1ccccc1	-8.76
Cn1c(=O)n(C)c2cc(NS(=O)(=O)Cc3cccc(F)c3)ccc21	-6.9
Cc1cccc(CN2CCC3(CC2)CC(c2cccnc2)C(=O)N3C)n1 (centres undefined)	15.6
Cc1nc(N2CCOCC2)nc(C)c1NS(=O)(=O)c1ccccc1	-4.03
COCCN(C)C(=O)Nc1ccc2c(ccn2CC(=O)N(C)C)c1	-3.43
Cc1noc(C)c1CCCNC(=O)Nc1ccc2c(c1)CC(=O)N2	-8.94
CN(C)CC1CN(c2ncnc3ccsc23)CCO1 (centres undefined)	8.47
CCN(C)CC1CCN(C(=O)Nc2ccc(-c3csnn3)cc2)C1 (centres undefined)	-5.78

SMILES	cytotoxicity at 70.5 h [%]
Cc1nc(N2CCCC2)ncc1-c1cc(O)nc(N2CCN(C)CC2)n1	-2.96
Cc1nn(C)cc1C1=NS(=O)(=O)N(C)C(C(=O)Nc2ccc(Br)cc2)=C1	0.0552
COC(=O)CNC(=O)c1sccc1N(C)S(=O)(=O)c1ccc(Cl)cc1	2.69
Cc1ccc(C(=O)N2[C@@H]3CC[C@H]2CN(C)C(=O)C3)c(=O)[nH]1	-8.22
CN(CCc1ccccc1)Cc1c(C2CC2)[nH]c2ncccc12	2.38
Cc1cnn(C2CN(Cc3nc(-c4ccsc4)no3)C2)c1	-8.74
O=C1CC(c2cccnc2)c2c(c(C(=O)O)cn2-c2ccccc2)N1 (centres undefined)	-1.92
CN(C)C(=O)c1ccc(-c2cccc3c2CCNC3)o1	-5.11
COCCN1CCN(C(C)C(=O)Nc2ccnn2C(C)C)CC1 (centres undefined)	1.69
CC(C)(CNC(=O)OC(C)(C)C)NC(=O)C1CC(=O)N(C2CC2)C1 (centres undefined)	13.1
CC(C)S(=O)(=O)NCC1CCCN(C(=O)c2cccnc2)C1 (centres undefined)	-7.06
Cn1cc(-c2noc(C3(C)CCOCC3)n2)cn1	11.7
COc1ccc(-c2cc(C3(O)CCCC3)on2)cc1	1.51
Cc1cc(C)c2[nH]c(C)c(CC(=O)N(C)CCN(C)C)c2c1	1.29
Cc1ccc(-c2noc(CN3CCc4nn(C)c(=O)cc4C3)n2)cc1	-4.24
O=C(NCCC1COc2ccccc2O1)c1ccc(N2CC(O)C2)nc1 (centres undefined)	-6.19
C1CCC(CSc2nnnn2C2CC2)OC1 (centres undefined)	-0.703
Cc1ccc(CN2Cc3ccccc3O[C@]3(CC[C@H](CO)CC3)C2)o1	52
COc1cccc2ncn(C(C)Cn3cccn3)c(=O)c12 (centres undefined)	-3.99
COc1cc(CNC(C)c2ccc(F)c(F)c2)cc2c1OCCO2 (centres undefined)	1.07
COc1ccc(N2Cc3nc(N)ncc3C2=O)cc1Cl	-3.37
CC1COCCN1C(=O)Cc1cc(Cl)c2c(c1)OCCO2 (centres undefined)	-12.3
